# Assay results published in ChEMBL document CHEMBL1201862, “PubChem BioAssay data set” (2004).
#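 Each compound was tested at five concentrations against cells in 96-well plates for 48 hours. GI50 marks 50% less growth.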 Activity calls are given as the source filed them. Rule as the data show it: active = GI50 up to about 1.1 µM and inactive = higher. Where a SMILES comes first, the peptide text is derived from it. The star is where a group is joined. Cbz = O=C(OCc1ccccc1)*
# How the values were obtained:
# Assay in all cases: inhibition of tumour cell growth, NCI panel, 48 h
# [1] = tested on: BT-549
# [2] = tested on: HOP-18
# [3] = tested on: DMS-114
# [4] = tested on: M19-MEL
# [5] = tested on: LXFL 529
# [6] = tested on: DLD-1
# [7] = tested on: KM-20L2
# [8] = tested on: XF498
# [9] = tested on: RXF 631
SMILES,GI50 [1],GI50 [5],GI50 [6],GI50 [7],also measured
COc1ccc(C(=O)/C=C/c2ccc(O)c(O)c2)c(OC)c1,3.26 µM (inactive),–,–,–,–
CCCCn1cnc2c(SC)ncnc21,> 100 µM (inactive),–,–,–,–
O=c1c2ccccc2[nH]c(=S)n1-c1ccc(Br)cc1,–,37.3 µM (inactive),49.7 µM (inactive),63.4 µM (inactive),GI50 [2]: > 100 µM (inactive); GI50 [3]: 46.7 µM (inactive); GI50 [4]: 74.8 µM (inactive); GI50 [8]: > 100 µM (inactive)
CN(O)C(=O)CCC(NC(=O)CCC(N)C(=O)O)C(=O)NCC(=O)O (stereo not given),> 100 µM (inactive),–,–,–,–
CCOc1c(OC)cc(-c2nc3n(n2)C(=O)C(CC)S3)cc1OC (stereo not given),> 10 µM (inactive),–,–,–,–
COC(=O)c1cc(CC2Cc3cc4c(cc3C2=O)CCC4)cc2c1CCC2 (stereo not given),60 µM (inactive),–,–,–,–
O=C1/C(=C/c2ccc(O)cc2)CCc2ccccc21,20 µM (inactive),–,–,–,–
O=c1c2cccnc2ncn1CCCN1CCOCC1,–,> 100 µM (inactive),> 100 µM (inactive),> 100 µM (inactive),GI50 [3]: > 100 µM (inactive); GI50 [4]: > 100 µM (inactive); GI50 [8]: > 100 µM (inactive)
COC(=O)C1C(O)C(C)C(O)C(C)(O)C=C(C)C2=C3C(=C(C)C(=O)c4c(O)c(c(C)c(OC(C)=O)c43)NC(=O)C(C)=C/C=C\C(C)(O)C(O)C(C)C1O)OCO2 (stereo not given),> 100 µM (inactive),–,–,–,–
COc1cc(-c2n[nH]cc2CCCC(=O)Nc2ccccc2[N+](=O)[O-])ccc1O,–,> 100 µM (inactive),> 100 µM (inactive),–,GI50 [2]: > 100 µM (inactive); GI50 [3]: 25.4 µM (inactive); GI50 [8]: > 100 µM (inactive)
Clc1ccc(/C=N/c2ccc3c(c2)Cc2ccccc2-3)c(Cl)c1,> 100 µM (inactive),–,–,–,–
Clc1ccccc1-c1nn2c(CCCCCCCCc3nnc4sc(-c5ccccc5Cl)nn34)nnc2s1,> 100 µM (inactive),–,–,–,–
COc1cc(/C=C/C(=O)C2(C(=O)/C=C/c3cc(OC)c(OC)c(OC)c3)CCCCC2)cc(OC)c1OC,29.6 µM (inactive),–,–,–,–
CNc1ncnc2c1cnn2Cc1cn(COCC(O)CO)nn1 (stereo not given),> 100 µM (inactive),–,–,–,–
CCOc1cc(NC(C)=O)ccc1C(=O)NN1C(=O)CSC1c1ccc(O)c(OC)c1 (stereo not given),28 µM (inactive),–,–,–,–
Cn1c(=O)oc2cc(C3CCC(=O)N3Cc3csc(-c4ccccc4)n3)ccc21 (stereo not given),–,96.6 µM (inactive),86.9 µM (inactive),> 100 µM (inactive),GI50 [2]: > 100 µM (inactive); GI50 [3]: > 100 µM (inactive); GI50 [4]: > 100 µM (inactive); GI50 [8]: 67.1 µM (inactive)
Cc1ccccc1C1CC(c2ccccc2)=NO1 (stereo not given),–,> 100 µM (inactive),> 100 µM (inactive),> 100 µM (inactive),GI50 [2]: > 100 µM (inactive); GI50 [9]: > 100 µM (inactive); GI50 [3]: > 100 µM (inactive)
Cc1ccc(O)c(C(c2ccc(C(c3cc(C)ccc3O)c3cc(C)ccc3O)cc2)c2cc(C)ccc2O)c1,2.01 µM (inactive),–,–,–,–
c1ccc2c(c1)CCc1c-2n(CCN2CCOCC2)c2ccccc12,> 100 µM (inactive),–,–,–,–
Cc1c(C2Cc3ccccc3N2)c2ccccc2n1C (stereo not given),–,> 100 µM (inactive),> 100 µM (inactive),> 100 µM (inactive),GI50 [3]: > 100 µM (inactive); GI50 [4]: > 100 µM (inactive); GI50 [8]: > 100 µM (inactive)
CC1CC[C@@]2(OC1)OC1C[C@H]3[C@@H]4CC[C@H]5CC(OC6OC(CO)C(O)C(OC7OC(CO)C(OC8OC(CO)C(O)C(OC9OC(CO)C(O)C(O)C9O)C8OC8OC(CO)C(O)C(O)C8O)C(O)C7O)C6O)[C@H](O)CC5(C)[C@H]4CCC3(C)C1[C@@H]2C (stereo not given in full),4.37 µM (inactive),–,–,–,–

SMILES,GI50 [1],GI50 [5],GI50 [6],GI50 [7],also measured
CCc1cccc(C)c1NC(=O)CCc1n[nH]c(=S)o1,–,> 100 µM (inactive),44.4 µM (inactive),> 100 µM (inactive),GI50 [2]: > 100 µM (inactive); GI50 [4]: > 100 µM (inactive)
CC(=O)NC(Cc1ccc(O)cc1)C(=O)O (stereo not given),> 100 µM (inactive),–,–,–,–
c1ccc2c[n+](Cc3ccnc4ccccc34)ccc2c1,> 100 µM (inactive),–,–,–,–
Clc1nc2c(C#Cc3ccccc3)ncnc2n1C1CCCCO1 (stereo not given),14.8 µM (inactive),–,–,–,–
CCOC(=O)COc1ccc2c(C)cc(=O)oc2c1,> 100 µM (inactive),–,–,–,–
C(=N\Nc1ccc(-c2nc3ccccc3[nH]2)cc1)/c1c(-c2ccc(Cc3ccccc3)cc2)[nH]c2ccccc12,4.1 µM (inactive),–,–,–,–
CC(C)(C)OC(=O)NC(C)(C)C(=O)NCCC(=O)O,> 100 µM (inactive),–,–,–,–
O=[N+]([O-])C(=C1c2ccccc2-c2ccccc21)[N+](=O)[O-],–,41.3 µM (inactive),–,57.3 µM (inactive),–
O=C1NC2OC(CO)C(O)C(O1)C2O (stereo not given),–,> 100 µM (inactive),> 100 µM (inactive),> 100 µM (inactive),GI50 [2]: > 100 µM (inactive); GI50 [3]: > 100 µM (inactive); GI50 [4]: > 100 µM (inactive); GI50 [8]: > 100 µM (inactive)
Cc1ccccc1/N=N/c1ccc(/N=N/c2c(O)ccc3cc(S(=O)(=O)O)cc(S(=O)(=O)O)c23)c(C)c1,> 100 µM (inactive),–,–,–,–
CC1CN(c2cc3c(cc2F)c(=O)c(C(=O)O)cn3-c2ccc(N3CCN(C)CC3)cn2)CC(C)N1 (stereo not given),> 100 µM (inactive),–,–,–,–
CC(C)(C)OC(=O)C1=C(N)N(Cc2ccccc2)C2(C)C=CC(=O)C=C12 (stereo not given),1.95 µM (inactive),–,–,–,–
O=C1CCC(=O)N2CCCCN12,–,> 100 µM (inactive),> 100 µM (inactive),> 100 µM (inactive),GI50 [2]: > 100 µM (inactive); GI50 [9]: > 100 µM (inactive); GI50 [3]: > 100 µM (inactive); GI50 [4]: > 100 µM (inactive)
C/C(CC(=O)Nc1ccc([N+](=O)[O-])cc1)=N\NC(N)=O,–,> 80.2 µM (inactive),> 77.8 µM (inactive),> 64.9 µM (inactive),GI50 [2]: > 100 µM (inactive); GI50 [3]: > 45.8 µM (inactive); GI50 [4]: > 100 µM (inactive); GI50 [8]: > 100 µM (inactive)
CCOC(=O)C(NC(=O)CC)(N1CCN(c2cc3c(cc2F)c(=O)c(C(=O)O)cn3C2CC2)CC1)C(F)(F)F (stereo not given),> 100 µM (inactive),–,–,–,–
CCOC(=O)Cc1csc(Nc2ccccc2[N+](=O)[O-])n1,–,> 100 µM (inactive),–,> 100 µM (inactive),GI50 [2]: > 100 µM (inactive); GI50 [3]: > 100 µM (inactive); GI50 [4]: > 100 µM (inactive)
CCOC(=O)c1c(CN2CCCC2)n(-c2ccccc2)c2cc(Br)c(OC)cc12,18.7 µM (inactive),–,–,–,–
O=[N+]([O-])/C(C(Cl)=C(Cl)Cl)=C(\Nc1ccccc1)n1nnc2ccccc21,27 µM (inactive),–,–,–,–
O=C1/C(=C2\Sc3c(ccc(Cl)c3Cl)C2=O)Sc2c1ccc(Cl)c2Cl,> 100 µM (inactive),–,–,–,–
COC(OC)[C@@H]1OC[C@H](n2cnc3c(N)ncnc32)[C@H]1O,> 100 µM (inactive),–,–,–,–
Cc1nc2ccc(S(=O)(=O)Nc3ccccc3)cc2c(=O)n1NC(=O)CNc1ccccc1,> 100 µM (inactive),–,–,–,–

SMILES,GI50 [1],GI50 [5],GI50 [6],GI50 [7],also measured
Cc1cccc(C(C)(C)C)c1NC(=O)CCc1n[nH]c(=S)o1,–,> 100 µM (inactive),98.4 µM (inactive),> 100 µM (inactive),GI50 [2]: > 100 µM (inactive); GI50 [3]: 43.3 µM (inactive); GI50 [4]: > 100 µM (inactive)
O=C(Cc1nc2ccccc2s1)C(=O)Nc1ccc(Cl)cc1,–,> 100 µM (inactive),> 100 µM (inactive),> 100 µM (inactive),GI50 [2]: > 100 µM (inactive); GI50 [3]: > 100 µM (inactive); GI50 [4]: > 100 µM (inactive)
CC1C=C(OC(=O)c2ccccc2)C(=O)C(n2cc(F)c(=O)[nH]c2=O)O1 (stereo not given),–,56 µM (inactive),22.8 µM (inactive),94.6 µM (inactive),GI50 [2]: > 100 µM (inactive); GI50 [3]: > 100 µM (inactive); GI50 [4]: 93.3 µM (inactive); GI50 [8]: 48.1 µM (inactive)
Cc1cc2c([N+](=O)[O-])cc3c(c2o1)C(=O)C=CC3=O,16.6 µM (inactive),–,–,–,–
C/C(=C\c1ccccc1)C(=O)NCc1ccc(C(=O)NCCc2c[nH]c3ccccc23)cc1,> 100 µM (inactive),–,–,–,–
CC(C)(C)NC(=O)/C(=C\Sc1ccccc1)c1ccccc1,> 30.3 µM (inactive),–,–,–,–
COC(=O)c1cc(C#N)[nH]c1-c1ccc(Br)s1,10.9 µM (inactive),–,–,–,–
CCCC[C@@H]1CCN2C[C@@H](O)[C@@H](O)[C@H]2[C@@H]1O,> 100 µM (inactive),–,–,–,–
Cc1cccc(C)c1NC(=O)CCc1nnc2s/c(=C\c3ccc(Cl)cc3)c(=O)n12,–,75.7 µM (inactive),37.8 µM (inactive),> 100 µM (inactive),GI50 [2]: > 100 µM (inactive); GI50 [3]: > 100 µM (inactive); GI50 [4]: > 100 µM (inactive); GI50 [8]: 52.8 µM (inactive)
NC(CCCCNCc1ccccc1O)C(=O)O (stereo not given),–,> 100 µM (inactive),> 100 µM (inactive),> 100 µM (inactive),GI50 [2]: > 100 µM (inactive); GI50 [3]: > 100 µM (inactive); GI50 [4]: > 100 µM (inactive)
CCC1C(C(=O)Nc2ccccc2C)=C(C)NC(C)=C1c1ccccc1C (stereo not given),–,> 100 µM (inactive),> 39.7 µM (inactive),> 92.3 µM (inactive),GI50 [2]: > 60.8 µM (inactive); GI50 [4]: > 80.4 µM (inactive); GI50 [8]: > 100 µM (inactive)
CCSC1=CC2(O)N(CCc3ccc(OC)c(OC)c3)C(=O)CC2(C(=O)OC)CC1=O (stereo not given),18.4 µM (inactive),–,–,–,–
CC1(C)OC(=O)CC12CCN(Cc1ccccc1)CC2,> 100 µM (inactive),–,–,–,–
CC(C)OC(=O)c1ccc(CCC2=CC(=O)C(Br)=CC2=O)cc1,5.27 µM (inactive),–,–,–,–
COC(=O)C1C(C(=O)OC)C2(OC)c3ccccc3-c3ccccc3C12 (stereo not given),–,44.1 µM (inactive),33.3 µM (inactive),26.2 µM (inactive),GI50 [2]: 55.1 µM (inactive); GI50 [9]: 54.8 µM (inactive); GI50 [3]: 20.6 µM (inactive); GI50 [4]: 33 µM (inactive)
CS(=O)(=O)Oc1cccc(/C=N/N=C(\N)NO)c1,–,19.2 µM (inactive),24.9 µM (inactive),–,GI50 [2]: 69.8 µM (inactive); GI50 [3]: 9.55 µM (inactive); GI50 [4]: 42.5 µM (inactive); GI50 [8]: 10.7 µM (inactive)
CC(=O)Oc1ccc(/C=C/C(=O)NCC(NC(=O)/C=C/c2ccc(OC(C)=O)c(OC(C)=O)c2)C(=O)O)cc1OC(C)=O (stereo not given),> 100 µM (inactive),–,–,–,–
CCc1nc(N)nc(N)c1-c1ccc(NCCc2ccccc2)c([N+](=O)[O-])c1,4.62 µM (inactive),–,–,–,–
C[n+]1ccc(Nc2ccc(NC(=O)c3ccc(Nc4cc[n+](C)c5ccc([N+](=O)[O-])cc45)cc3[N+](=O)[O-])cc2)cc1,–,15.8 µM (inactive),> 86.7 µM (inactive),> 100 µM (inactive),GI50 [2]: 20.5 µM (inactive); GI50 [3]: 0.692 µM (active); GI50 [4]: 18.3 µM (inactive); GI50 [8]: 33.5 µM (inactive)
COC(=O)C(CC(C)C)NC(=O)C(CCCNC(=N)N)NC(=O)OCc1ccccc1 (stereo not drawn) (Cbz-Arg-Leu-OMe; configuration not given here),> 100 µM (inactive),–,–,–,–
O=c1cc(-c2ccc(O)cc2)oc2cc(O[C@@H]3O[C@H](CO)[C@@H](O)[C@H](O)[C@H]3O)cc(O)c12 [APIGETRIN],24.4 µM (inactive),–,–,–,–
